Laboratory results reported in PMC9055250, “Design, synthesis, and biological evaluation of new 6,N^2-diaryl-1,3,5-triazine-2,4-diamines as anticancer agents selectively targeting triple negative breast cancer cells” (RSC Advances, 2020).
Like-named read-outs stand apart in the source and are kept apart here.

Experiments:
[1] = system: MDA-MB231 breast cancer cells; assay: MTT in vitro cytotoxicity assay, MDA-MB231; type: cell-based; conditions: for viability at 10 µM / GI50: Homo sapiens, MDA-MB-231; for viability at 10 µM: read-out: Cell viability (%) MDA-MB231
Procedure: (§1) The synthesized compounds were tested against three breast tumor cell lines (MDA-MB231, SKBR-3 and MCF-7) and epithelial breast cell line (MCF-10A) by the MTT colorimetric assay.[29,30] All cells were obtained from the American Type Culture Collection. The cancerous cell lines were grown in Dulbecco's modified eagle medium (DMEM) supplemented with 10% fetal bovine serum (FBS) and 1% pen-strep antibiotic. The MCF-10A human epithelial breast cell line was grown in the complete mammary epithelial growth medium containing horse serum 5%, epithelial growth factor 20 ng mL^−1, hydrocortisone […], cholera toxin 100 ng mL^−1, insulin 10 μg mL^−1, and pen-step antibiotic.[31] For the cytotoxic assay, 20 to 75 × 10^3 cells per mL (based on the doubling time for each cell line) were seeded in 96-well plates and the plates were incubated overnight in a humidified air atmosphere at 37 °C in 5% CO2 incubator.
(§2) The cells were then treated with compounds at different concentrations. After 72 h of incubation, the MTT (0.5 mg mL^−1) was added to wells, followed by 4 h of incubation. The culture medium was then removed and DMSO (100 μL per well) was added and the absorbance values were measured at 570 nm using the multi-well Tecan NanoQuant, Infinite m200 Pro plate reader. Growth inhibitory values (GI50) were calculated using GraphPad Prism 7 (GraphPad Software, San Diego, USA) by nonlinear regression analysis. Three independent experiments were carried out and the data was expressed in mean ± standard deviation (SD). The concentration–response curves used for the GI50 calculation are available in ESI. ^†

[2] = system: SKBR-3 breast cancer cells; assay: MTT in vitro cytotoxicity assay, SKBR-3; type: cell-based; conditions: Homo sapiens; for viability at 10 µM: SK-BR-3, 10 μM, 72 h, read-out: Cell viability (%) SKBR-3; for GI50: SK-BR-3, 72 h, read-out: GI50 ± SD SKBR-3
Procedure: as §1, §2

[3] = system: MCF-7 breast cancer cells; assay: MTT in vitro cytotoxicity assay, MCF-7; type: cell-based; conditions: Homo sapiens; for viability at 10 µM: MCF7, 10 μM, 72 h, read-out: Cell viability (%) MCF-7; for GI50: MCF7, 72 h, read-out: GI50 ± SD MCF-7
Procedure: as §1, §2

[4] = system: MCF-10A human epithelial breast cell line; assay: MTT in vitro cytotoxicity assay, MCF-10A; type: cell-based; conditions: 72 h, read-out: GI50 ± SD MCF-10A
Procedure: as §1, §2

[5] = 72 h, MTT, read-out: GI50 ± SD MDA-MB231
[6] = MDA-MB231, calculated from GI50, read-out: Experimental pGI50 (converted)

Row | SMILES | viability at 10 µM ([1]; 72 h, MTT) [%] | GI50 [1, 5] [µM] | GI50 [1, 6] [µM] | viability at 10 µM [2] [%] | GI50 [2] [µM] | viability at 10 µM [3] [%] | GI50 [3] [µM] | GI50 [4] [µM] | melting point [°C] | fold increase in antiproliferative activity over regioisomer ([1]; MDA-MB231, para- vs ortho-/meta-substituted ring B (13 vs 19, 14 vs 16, 15 vs 18)) [fold]
1 | COc1ccccc1Nc1nc(N)nc(-c2cccc(F)c2)n1 [Compound 1, 6-(3-Fluorophenyl)-N^2-(2-methoxyphenyl)-1,3,5-triazine-2,4-diamine] | 49 | 17.3 ± 0.6 | 17.4 | 84 | > 20 | 88 | > 20 | > 20 | 140 to 142 | –
2 | Cc1ccc(Nc2nc(N)nc(-c3ccc(Cl)cc3)n2)cc1 [Compound 2, 6-(4-Chlorophenyl)-N^2-(4-methylphenyl)-1,3,5-triazine-2,4-diamine] | 29 | 13.8 ± 1.9 | 13.8 | 85 | > 20 | 100 | > 20 | > 20 | 179 to 181 | –
3 | Nc1nc(Nc2ccccc2Cl)nc(-c2ccc(C(F)(F)F)cc2)n1 [Compound 3, N ^2-(2-Chlorophenyl)-6-(4-(trifluoromethyl)phenyl)-1,3,5-triazine-2,4-diamine] | 49 | 13.7 ± 0.6 | 13.8 | 83 | 17.7 ± 1.4 | 96 | > 20 | > 20 | 165 to 167 | –
4 | Nc1nc(Nc2ccc(Cl)cc2)nc(-c2ccc(OC(F)(F)F)cc2)n1 [Compound 4, N ^2-(4-Chlorophenyl)-6-(4-(trifluoromethoxy)phenyl)-1,3,5-triazine-2,4-diamine] | 34 | 16.7 ± 1.2 | 16.6 | 86 | > 20 | 95 | > 20 | > 20 | 201 to 203 | –
5 | CN(C)c1ccc(-c2nc(N)nc(Nc3ccccc3Cl)n2)cc1 [Compound 5, N ^2-(2-Chlorophenyl)-6-(4-(dimethylamino)phenyl)-1,3,5-triazine-2,4-diamine] | 28 | 0.1 ± 0.001 | 0.1 | 55 | 0.4 ± 0.04 | 86 | > 20 | > 20 | 191 to 193 | –
6 | Cc1ccc(-c2nc(N)nc(Nc3ccccc3Cl)n2)cc1 [Compound 6, N ^2-(2-Chlorophenyl)-6-(4-methylphenyl)-1,3,5-triazine-2,4-diamine] | 36 | 3.8 ± 0.4 | 3.8 | 80 | > 20 | 51 | 10.7 ± 1 | > 20 | 146 to 148 | –
7 | Cc1ccc(-c2nc(N)nc(Nc3ccc(Cl)cc3)n2)cc1 [Compound 7, N ^2-(4-Chlorophenyl)-6-(4-methylphenyl)-1,3,5-triazine-2,4-diamine] | 51 | 9.6 ± 0.2 | 9.55 | 76 | > 20 | 95 | > 20 | > 20 | 202 to 204 | –
8 | COc1ccc(-c2nc(N)nc(Nc3ccccc3)n2)cc1 [Compound 8, 6-(4-Methoxyphenyl)-N^2-phenyl-1,3,5-triazine-2,4-diamine] | 28 | 8.4 ± 0.3 | 8.32 | 67 | 19.6 ± 0.9 | 85 | 14.2 ± 1.7 | > 20 | 190 to 192 | –
9 | COc1ccc(-c2nc(N)nc(Nc3ccc(C)cc3)n2)cc1 [Compound 9, 6-(4-Methoxyphenyl)-N^2-(4-methylphenyl)-1,3,5-triazine-2,4-diamine] | 32 | 6.1 ± 0.6 | 6.17 | 89 | > 20 | 99 | > 20 | > 20 | 186 to 188 | –
10 | COc1cc(-c2nc(N)nc(Nc3ccccc3)n2)cc(OC)c1OC [Compound 10, N ^2-Phenyl-6-(3,4,5-trimethoxyphenyl)-1,3,5-triazine-2,4-diamine] | 14 | 9.7 ± 0.6 | 9.77 | 37 | 17.2 ± 0.4 | 62 | > 20 | > 20 | 111 to 113 | –
11 | COc1cc(-c2nc(N)nc(Nc3ccccc3F)n2)cc(OC)c1OC [Compound 11, N ^2-(2-Fluorophenyl)-6-(3,4,5-trimethoxyphenyl)-1,3,5-triazine-2,4-diamine] | 34 | 7.9 ± 0.5 | 7.94 | 73 | > 20 | 98 | > 20 | > 20 | 177 to 179 | –
12 | COc1cc(-c2nc(N)nc(Nc3ccccc3Cl)n2)cc(OC)c1OC [Compound 12, N ^2-(2-Chlorophenyl)-6-(3,4,5-trimethoxyphenyl)-1,3,5-triazine-2,4-diamine] | 42 | 11.3 ± 1.1 | 11.2 | 80 | > 20 | 100 | > 20 | > 20 | 176 to 178 | –
13 | COc1ccccc1Nc1nc(N)nc(-c2cc(OC)c(OC)c(OC)c2)n1 [Compound 13, N ^2-(2-Methoxyphenyl)-6-(3,4,5-trimethoxyphenyl)-1,3,5-triazine-2,4-diamine] | 16 | 2.1 ± 0.2 | 2.04 | 57 | 14 ± 1.6 | 100 | > 20 | > 20 | 173 to 175 | –
14 | COc1cc(-c2nc(N)nc(Nc3cccc(Cl)c3)n2)cc(OC)c1OC [Compound 14, N ^2-(3-Chlorophenyl)-6-(3,4,5-trimethoxyphenyl)-1,3,5-triazine-2,4-diamine] | 40 | 9.1 ± 1.1 | 9.12 | 58 | 16.7 ± 1.4 | 96 | > 20 | > 20 | 193 to 195 | –
15 | COc1cc(-c2nc(N)nc(Nc3cccc(C)c3)n2)cc(OC)c1OC [Compound 15, N ^2-(3-Methylphenyl)-6-(3,4,5-trimethoxyphenyl)-1,3,5-triazine-2,4-diamine] | 14 | 2.2 ± 0.2 | 2.19 | 43 | 6 ± 0.1 | 86 | > 20 | > 20 | 192 to 194 | –
16 | COc1cc(-c2nc(N)nc(Nc3ccc(Br)cc3)n2)cc(OC)c1OC [Compound 17, N ^2-(4-Bromophenyl)-6-(3,4,5-trimethoxyphenyl)-1,3,5-triazine-2,4-diamine] | 24 | 0.008 ± 0.0005 | 0.00794 | 43 | 0.17 ± 0.01 | 48 | > 20 | > 20 | 217 to 219 | –
17 | COc1ccc(Nc2nc(N)nc(-c3cc(OC)c(OC)c(OC)c3)n2)cc1 [Compound 19, N ^2-(4-Methoxyphenyl)-6-(3,4,5-trimethoxyphenyl)-1,3,5-triazine-2,4-diamine] | 20 | 0.01 ± 0.001 | 0.01 | 48 | 0.27 ± 0.02 | 52 | > 20 | > 20 | 195 to 197 | 200
18 | CN(Cc1cnc2nc(N)nc(N)c2n1)c1ccc(C(=O)N[C@@H](CCC(=O)O)C(=O)O)cc1 [Methotrexate, reference compound] | – | 0.01 ± 0.001 | – | – | – | – | 5.8 ± 0.5 | – | – | –
19 | Cc1cn(-c2cc(NC(=O)c3ccc(C)c(Nc4nccc(-c5cccnc5)n4)c3)cc(C(F)(F)F)c2)cn1 [Nilotinib, reference compound] | – | 0.04 ± 0.001 | – | – | 9.6 ± 0.5 | – | – | – | – | –
